In US20060106014A1, “Methods for treating diabetes” (priority 2004, published 2006):

What was measured:
5-lipoxygenase = molecular target: T1, 5-lipoxygenase (Homo sapiens, UniProt P09917); assay: 5-Lipoxygenase Enzyme Assay (colorimetric, ferric oxidation of xylenol orange); assay type: biochemical; set-up: purchased Cayman 60402; conditions: read-out: in vitro IC50 value in a 5-LO enzyme assay
T1 sequence (P09917 1-674): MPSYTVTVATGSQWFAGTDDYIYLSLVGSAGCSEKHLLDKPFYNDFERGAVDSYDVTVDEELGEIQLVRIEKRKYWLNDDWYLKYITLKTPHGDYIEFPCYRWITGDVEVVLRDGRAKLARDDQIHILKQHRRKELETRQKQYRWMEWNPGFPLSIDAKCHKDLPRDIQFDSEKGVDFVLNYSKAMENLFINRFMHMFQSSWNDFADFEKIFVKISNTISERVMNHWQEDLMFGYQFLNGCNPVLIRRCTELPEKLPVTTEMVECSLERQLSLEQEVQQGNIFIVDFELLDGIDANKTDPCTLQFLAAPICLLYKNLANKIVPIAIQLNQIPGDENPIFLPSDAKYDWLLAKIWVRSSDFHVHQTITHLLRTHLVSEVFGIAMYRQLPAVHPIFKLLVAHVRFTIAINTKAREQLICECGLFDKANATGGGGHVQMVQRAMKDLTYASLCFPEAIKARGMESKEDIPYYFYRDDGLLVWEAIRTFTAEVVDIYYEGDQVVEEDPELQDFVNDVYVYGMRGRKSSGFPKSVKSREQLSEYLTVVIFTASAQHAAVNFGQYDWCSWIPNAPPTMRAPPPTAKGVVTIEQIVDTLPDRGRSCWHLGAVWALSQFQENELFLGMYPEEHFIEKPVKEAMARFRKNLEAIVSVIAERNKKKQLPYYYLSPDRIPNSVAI
Method: This procedure was used for measuring the enzymatic activity of human recombinant 5-lipoxygenase using a colorimetric method based on the ferric oxidation of xylenol orange.
(§1) The test compound and/or vehicle was added to 0.5 μL 5-lipoxygenase in 50 mM Tris-HCl buffer, pH 7.4. The reaction was initiated by addition of 70 μM arachidonic acid in Tris-HCl buffer, pH 7.4, and terminated after a 10 minute incubation at room temperature by addition of FOX reagent (25 mM sulphuric acid, 100 μM xylenol orange, 100 μM iron (II) sulphate, methanol:water 9:1). The yellow color of acidified xylenol orange was converted to a blue color by the lipid hydroperoxide-mediated oxidation of Fe^2+ ions and the interaction of the resulting Fe^3+ ions with the dye. The complex was allowed to form during a 1 hour incubation at room temperature with shaking. Absorbance of the Fe^3+ complex was then measured at 620 nm using a spectrophotometer. Negative controls contained enzyme during the incubation step but substrate was not added until after the FOX reagent.

[1] = molecular target: T2, porcine leukocyte 12/15-lipoxygenase (Sus scrofa, UniProt P16469); assay: 12/15-Lipoxygenase Enzyme Assay (colorimetric, ferric oxidation of xylenol orange); assay type: biochemical; conditions: read-out: in vitro IC50 value in a 12/15-LO enzyme assay
T2 construct: purchased Cayman 60300
T2 sequence (P16469 1-663): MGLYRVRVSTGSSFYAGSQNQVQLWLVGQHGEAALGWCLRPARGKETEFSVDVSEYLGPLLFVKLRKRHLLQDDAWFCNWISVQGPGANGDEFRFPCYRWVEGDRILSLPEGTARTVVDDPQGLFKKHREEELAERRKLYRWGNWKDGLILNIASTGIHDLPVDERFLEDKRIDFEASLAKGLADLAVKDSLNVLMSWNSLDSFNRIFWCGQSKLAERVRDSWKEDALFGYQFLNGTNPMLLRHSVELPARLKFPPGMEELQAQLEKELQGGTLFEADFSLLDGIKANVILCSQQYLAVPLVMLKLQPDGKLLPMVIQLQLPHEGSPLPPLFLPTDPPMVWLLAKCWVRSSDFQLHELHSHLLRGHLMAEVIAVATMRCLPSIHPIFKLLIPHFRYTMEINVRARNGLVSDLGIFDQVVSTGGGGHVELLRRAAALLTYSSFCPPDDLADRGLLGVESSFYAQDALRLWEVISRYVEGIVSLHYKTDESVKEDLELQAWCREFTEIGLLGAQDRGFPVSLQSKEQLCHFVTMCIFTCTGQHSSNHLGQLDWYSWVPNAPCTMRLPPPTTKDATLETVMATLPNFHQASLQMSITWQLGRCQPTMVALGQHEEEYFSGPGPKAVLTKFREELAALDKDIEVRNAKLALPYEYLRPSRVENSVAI
Method: This procedure was used for measuring the enzymatic activity of porcine leukocyte 12/15-lipoxygenase using a colorimetric method based on the ferric oxidation of xylenol orange.
as §1, with “vehicle were” for “vehicle was”, “to 1.3” for “to 0.5”, “μL 12/15-lipoxygenase” for “μL 5-lipoxygenase”, “spectrophotometer.” for “spectrophotometer. Negative controls contained enzyme during the incubation step but substrate was not added until after the FOX reagent.”
Negative controls contained enzyme during the incubation step but substrate was not added until after the FOX reagent.

Row | SMILES | IC50 (5-lipoxygenase) [µM] | IC50 [1] [µM]
1 | CC(=O)Nc1ccc(C=Cc2ccc(O)c(O)c2)cc1 [N-{4-[2-(3,4-dihydroxy-phenyl)-vinyl]-phenyl}acetamide] | < 5 | < 5
2 | Cc1c(C)c2c(c(C)c1O)CCC(C)(c1cc(F)c(O)c(F)c1)O2 (stereo not drawn) [2-(3,5-difluoro-4-hydroxyphenyl)-2,5,7,8-tetramethylchroman-6-ol] | < 5 | < 5
3 | Cc1c(C)c2c(c(Cl)c1O)CCC(C)(C)O2 [5-chloro-2,2,7,8-tetramethylchroman-6-ol] | < 5 | < 5
4 | COc1c(O)c(C)c(C)c2c1CCC(C)(C)O2 [5-methoxy-2,2,7,8-tetramethylchroman-6-ol] | < 5 | < 5
5 | O=[N+]([O-])c1ccc(CCc2cc(O)c(O)c(O)c2)cc1 [5-(4-nitrophenethyl)benzene-1,2,3-triol] | < 5 | < 5
6 | Oc1ccc(C=Cc2ccc(O)c(O)c2)c(O)c1 [4-(2,4-dihydroxystyryl)benzene-1,2-diol] | < 5 | < 5
7 | Cc1c(O)c(Br)c(C)c2c1CCC(C)(C)O2 [7-bromo-2,2,5,8-tetramethyl-chroman-6-ol] | < 5 | < 5
8 | O=[N+]([O-])c1ccc(C=Cc2ccc(O)c(O)c2)cc1 [4-[2-(4-nitro-phenyl)-vinyl]-benzene-1,2-diol] | < 5 | < 5
9 | Cc1c(O)c(C)c(C(F)(F)F)c2c1CCC(C)(C)O2 [2,2,5,7-tetramethyl-8-(trifluoromethyl)chroman-6-ol] | < 5 | < 5
10 | Cc1c(C)c2c(c(-c3ccco3)c1O)CCC(C)(C)O2 [5-(furan-2-yl)-2,2,7,8-tetramethylchroman-6-ol] | < 5 | < 5
11 | Cc1c(C)c2c(c(C)c1O)CCC(C)(C=Cc1ccccc1)O2 (stereo not drawn) [2,5,7,8-tetramethyl-2-styrylchroman-6-ol] | < 5 | < 5
12 | COCOc1ccc(C=Cc2ccc(C(C)(C)C)cc2)cc1OCOC [4-[2-(4-tert-Butyl-phenyl)-vinyl]-1,2-bis-methoxymethoxy-benzene] | < 5 | < 5
13 | COC(=O)c1ccc(C=Cc2ccc(O)c(O)c2)cc1 [4-[2-(3,4-dihydroxy-phenyl)-vinyl]-benzoic acid methyl ester] | < 5 | < 5
14 | COC(=O)c1ccc(C=Cc2ccc(O)c(O)c2CC=C(C)C)cc1 [4-{2-[3,4-dihydroxy-2-(3-methyl-but-2-enyl)-phenyl]-vinyl}benzoic acid methyl ester] | < 5 | < 5
15 | COCOc1ccc(C=Cc2ccc(C(F)(F)F)cc2)cc1OCOC [1,2-bis-methoxymethoxy-4-[2-(4-trifluoromethyl-phenyl)-vinyl]-benzene] | < 5 | < 5
16 | CNc1ccc(C=Cc2cc(O)c(O)c(CC=C(C)C)c2)cc1 [5-(4-(methylamino)styryl)-3-(3-methylbut-2-enyl)benzene-1,2-diol] | < 5 | < 5
17 | CS(=O)(=O)Nc1ccc(C=Cc2ccc(O)c(O)c2)cc1 [N-{4-[2-(3,4-dihydroxy-phenyl)-vinyl]-phenyl}methanesulfonamide] | < 5 | < 5
18 | CC1(C)CCc2cc(O)c3cccc(O)c3c2O1 [2,2-dimethyl-3,4-dihydro-2H-benzo[h]chromene-6,10-diol] | < 5 | < 5
19 | Cc1c(C)c2c(c(C)c1O)CCC(C)(c1cccs1)O2 (stereo not drawn) [2,5,7,8-tetramethyl-2-(thiophen-2-yl)chroman-6-ol] | < 5 | < 5
20 | N#Cc1ccc(C=Cc2ccc(O)c(O)c2O)cc1 [4-[2-(2,3,4-trihydroxy-phenyl)-vinyl]-benzonitrile] | < 5 | < 5
21 | Cc1c(O)cc2c(c1C)OC(C)(CCCl)CC2 (stereo not drawn) [2-(2-chloro-ethyl)-2,7,8-trimethyl-chroman-6-ol] | < 5 | < 5
22 | Cc1c(O)c(C)c2c(c1I)OC(C)(C)CC2 [8-iodo-2,2,5,7-tetramethylchroman-6-ol] | < 5 | < 5
23 | C=CCSCc1c(O)c(C)c(C)c2c1CCC(C)(C)O2 [5-allylsulfanylmethyl-2,2,7,8-tetramethyl-chroman-6-ol] | < 5 | < 5
24 | Oc1ccc(C=Cc2ccc(Br)cc2)cc1O [4-[2-(4-bromo-phenyl)-vinyl]-benzene-1,2-diol] | < 5 | < 5
25 | Cc1cc(C=Cc2ccc([N+](=O)[O-])cc2)cc(C)c1O [2,6-dimethyl-4-[2-(4-nitro-phenyl)-vinyl]-phenol] | < 5 | < 5
26 | CC(C)=CCc1cc(C=Cc2ccc(N(C)C)cc2)cc(O)c1O [5-(4-(dimethylamino)styryl)-3-(3-methylbut-2-enyl)benzene-1,2-diol] | < 5 | < 5
27 | Cc1c(O)c(CCC(C)C)c(C)c2c1CCC(C)(C)O2 [2,2,5,8-tetramethyl-7-(3-methyl-butyl)-chroman-6-ol] | < 5 | < 5
28 | O=S(=O)(c1ccc(C=Cc2ccc(O)c(O)c2)cc1)N1CCCCC1 [4-{2-[4-(piperidine-1-sulfonyl)-phenyl]-vinyl}benzene-1,2-diol] | < 5 | < 5
29 | N#Cc1ccc(CCc2cc(O)c(O)c(O)c2)cc1 [4-(3,4,5-trihydroxyphenethyl)benzonitrile] | < 5 | < 5
30 | Cc1c(O)c(C)c2c(c1CCC(C)C)OC(C)(C)CC2 [8-isopentyl-2,2,5,7-tetramethylchroman-6-ol] | < 5 | < 5
